Data from US10350204B2, “Methods for treating cognitive deficits associated with fragile X syndrome” (Wisconsin Alumni Research Foundation, priority 2015, dated 2019).

What was measured:
Assay type in all cases: cell-based, mouse
[1] = test system: Fmr1 KO and wildtype NPCs; test: BrdU proliferation assay of cultured NPCs
Protocol: We used only early passage cells (between passage 4 and 10) and only the same passage numbers of wild type (WT) and Fmr1 KO cells. For each experiment, triplicate wells of cells were analyzed, and results were averaged as one data point (n=1). At least 3 independent experiments (n=3) were performed and used for statistical analyses for each analysis. To study cell proliferation, we dissociated neural stem cells with trypsin and plated them on poly-L-ornithine and laminin-coated 24 well plate (Scientific fisher, 87721) at a density of 100,000 cells per well in proliferation medium. At 20 h post-plating, 5 μM 5-bromo-2.′-deoxyuridine (BrdU, Sigma-Aldrich) was added into the culture medium for 6 h. NPCs were then washed with PBS and fixed with 4% paraformaldehyde for 30 min at room temperature, followed by immunohistochemical analysis. To detect BrdU incorporation, fixed cells were pretreated with 1M HCl for 30 min at 37° C., and then washed with borate buffer, pH 8.5, for 30 min. We then followed our standard immunohistochemistry protocol^10. BrdU incorporation assay was determined using an Operetta high content imaging system (PerkinElmer, Inc) and Harmony quantification software (PerkinElmer, Inc). The percentage of proliferating cells was defined as the number of BrdU-labeled cells divided by total DAPI-positive cells.
For proliferation assay in vitro, 1 μM MK2206 (Selleckchem, S1078) (AKT phosphorylation inhibitor), or 2 μM Nutlin-3 (Nt3, Selleckchem, 51061) (Mdm2 inhibitor), or 1 μM RG7112 (Selleckchem, S7030) (Mdm2 inhibitor) or YH239-EE (Selleckchem 57489) (4 μM) (Mdm2 inhibitor) was added to proliferating NPCs at 6 hours post-plating. Cells were then pulse labeled 18 hours later with 5 μM 5-bromo-2′-deoxyuridine (BrdU, Sigma-Aldrich, B5002) and incubated for 6 hours in the presence of inhibitor, followed by fixation, staining, and quantification.

[2] = test system: Fmr1 KO and wildtype NPCs; test: Differentiation assay of cultured NPCs (Tuj1 neurons, GFAP astrocytes); details: 4 days
Protocol: Proliferation and differentiation of aNPCs were analyzed using our published methods (Guo et al., Nature Med. (2011); Guo et al., Neuron 70, 924-938 (2011); Luo et al., PLoS Genet 6 (2010); Liu et al., Cell Stem Cell 6 (2010)). We used only early passage cells (between passage 4 and 10) and only the same passage numbers of wild type (WT) and Fmr1 KO cells. For each experiment, triplicate wells of cells were analyzed, and results were averaged as one data point (n=1). At least 3 independent experiments (n=3) were performed and used for statistical analyses for each analysis. […] For the differentiation assay, at 24 h post-plating, cells were changed into differentiation medium, Neurobasal A, containing 5 μM forskolin (Sigma-Aldrich, F-6886) and 1 μM retinoic acid (Sigma-Aldrich, R-2625) for 4 d, followed by fixation with 4% paraformaldehyde for 30 min, and then washed with Dulbecco's Phosphate Buffered Saline (DPBS), pH 7.4 for 30 min. Immunocytochemistry staining was carried out as described (Guo et al., Nature Med. (2011); Guo et al., Neuron 70, 924-938 (2011); Luo et al., PLoS Genet 6 (2010); Liu et al., Cell Stem Cell 6 (2010)). Briefly, cells were preblocked using DPBS containing 5% normal goat serum (VECTOR, S-1000) and 0.1% Triton X-100 for 30 min, followed by overnight incubation with primary antibodies: mouse anti-Tuj1 (1:1000, Promega, G712A) and rabbit anti-S100β (1:1000, Dako, Z0334).
After washing with Dulbecco s Phosphate Buffered Saline (DPBS), cells were incubated with secondary antibodies that included goat anti-mouse 568 (1:1000, Invitrogen, A11031), goat anti-rabbit 488 (1:1000, Invitrogen, A11008) followed by counterstaining with the fluorescent nuclear dye 4′,6-diamidino-2′-phenylindole dihydrochloride (DAPI, Sigma-Aldrich, B2261). […] (VECTOR, H-1000), the numbers of Tuj1, GFAP-positive cells were quantified using an Olympus BX51 microscope equipped with a MicroFire digital camera (Optronics) and a motorized stage using a 20× objective lens. The quantification was carried out using an unbiased stereology method with assistance from StereoInvestigator software (MBF Biosciences). The percentage of differentiated cells was calculated as the number of Tuj1- or GFAP-labeled cells divided by the total number of cells stained with DAPI.

[3] = test system: Fmr1 KO and wildtype NPCs; test: Western blot analyses of p-AKT, p-MDM2, MDM2 and P53 in NPCs
Protocol: NPCs were isolated from the dentate gyms of 8 to 10-week-old male Fmr1 KO mice and wild-type (wildtype) littermate controls based on our published methods (12, 64). Independently isolated cells serve as biological replicates. Proliferation and differentiation of NPCs was analyzed as described (11, 12, 61). We used only early passage cells (between passage 4 and 10) and only the same passage numbers of wildtype and Fmr1 KO cells. For each experiment, triplicate wells of cells were analyzed, and results were averaged as one data point (n=1). At least 3 independent biological replicates were used (n=3) for statistical analyses.
Protein samples were separated on SDS-PAGE gels (Bio-Rad), transferred to PVDF membranes (Millipore), and incubated with primary antibodies. After incubation with fluorescence-labeled secondary antibodies (Li—CoR), the membranes were imaged using Li—CoR and quantification was performed using ImageJ software. At least n=3 independent blots were used for statistical analysis.
For loading controls, membranes were probed with the mouse antibody against GAPDH.

[4] = test system: Fmr1 KO and wildtype NPCs; test: as above; details: total AKT as loading control
[5] = Fmr1 KO NPCs, 1 μM MK2206, 2 μM Nutlin-3, 1 μM RG7112, 4 μM YH239-EE
[6] = wildtype NPCs, 1 μM MK2206, 2 μM Nutlin-3
[7] = Fmr1 KO NPCs, 1 μM MK2206, 2 μM Nutlin-3, 1 μM RG7112

Compound	cell proliferation (BrdU+ cells) [1, 5]	cell proliferation (BrdU+ cells) [1, 6]	astroglial differentiation (GFAP+) [2, 7]	neuronal differentiation (Tuj1+) [2, 7]	astroglial differentiation (GFAP+) [2, 6]	neuronal differentiation (Tuj1+) [2, 6]	P53 expression ([3]; Fmr1 KO NPCs)	p-MDM2 (Ser166) ([3]; Fmr1 KO NPCs)	total MDM2 ([3]; Fmr1 KO NPCs)	p-MDM2 (Ser166) ([3]; wildtype NPCs)	total MDM2 ([3]; wildtype NPCs)	p-AKT ([4]; Fmr1 KO NPCs)	p-AKT ([4]; wildtype NPCs)
CCOC(=O)c1[nH]c2cc(Cl)ccc2c1C(C(=O)NC(C)(C)C)N(C=O)Cc1ccc(Cl)cc1 (centres unmarked) [YH239-EE]	rescued the cell proliferation phenotype	–	–	–	–	–	–	–	–	–	–	–	–
NC1(c2ccc(-c3nc4ccn5c(=O)[nH]nc5c4cc3-c3ccccc3)cc2)CCC1 [MK-2206]	decreased cell proliferation	decreased cell proliferation	decreased	increased neuronal differentiation	decreased	increased neuronal differentiation	enhanced P53 expression	reduced p-MDM2	without affecting total MDM2	reduced p-MDM2	without affecting total MDM2	reduced p-AKT	reduced p-AKT
CCOc1cc(C(C)(C)C)ccc1C1=N[C@@](C)(c2ccc(Cl)cc2)[C@@](C)(c2ccc(Cl)cc2)N1C(=O)N1CCN(CCCS(C)(=O)=O)CC1 [RG7112]	rescued the cell proliferation phenotype	–	rescued astroglial differentiation phenotypes	rescued neuronal differentiation phenotypes	–	–	–	–	–	–	–	–	–
